Assay results as given in publication PMC6222422, “Synthesis and Biological Evaluation of Novel Indole-Derived Thioureas” (Molecules : A Journal of Synthetic Chemistry and Natural …, 2018).

Columns and labels:
BVDV = test: microbe, parasite or virus in culture; assay type: cell-based, bovine viral diarrhoea virus; settings: for EC50: Bovine viral diarrhea virus isolates and strains, MDBK, in Bos taurus, read-out: BVDV EC50
Reo-1 = test: microbe, parasite or virus in culture; assay type: cell-based, reovirus type-1; settings: Reovirus sp., BHK, read-out: Reo-1 EC50
YFV = test: microbe, parasite or virus in culture; assay type: cell-based; settings: Yellow fever virus, BHK, read-out: YFV EC50
HSV-1 = test: microbe, parasite or virus in culture; assay type: cell-based, human herpes 1; settings: Human alphaherpesvirus 1, Vero 76, read-out: HSV-1 EC50
HIV-1 = test: microbe, parasite or virus in culture; settings: Human immunodeficiency virus 1, MT4, read-out: HIV-1 EC50
in vitro [1] = settings: cattle (Bos taurus)
Sb-1 = test: microbe, parasite or virus in culture; assay type: cell-based, poliovirus type-1; settings: Enterovirus C, Vero 76, read-out: Sb-1 EC50
VSV = test: microbe, parasite or virus in culture; assay type: cell-based; settings: Vesicular stomatitis virus, Vero 76, read-out: VSV EC50
in vitro [2] = settings: Syrian hamster (Mesocricetus auratus)
CV-B5 = test: microbe, parasite or virus in culture; assay type: cell-based, coxsackievirus B5; settings: Enterovirus B, CVB5, Vero 76, read-out: CV-B5 EC50
VV = test: microbe, parasite or virus in culture; assay type: cell-based; settings: Orthopoxvirus vaccinia, Vero 76, read-out: VV EC50
in vitro [3] = settings: African green monkey (Cercopithecus aethiops)
RSV = test: microbe, parasite or virus in culture; assay type: cell-based, human respiratory syncytial virus; settings: human respiratory syncytial virus, Vero 76, read-out: RSV EC50
in vitro [4] = settings: human

| SMILES | EC50 (BVDV) [µM] | EC50 (Reo-1) [µM] | EC50 (YFV) [µM] | EC50 (HSV-1) [µM] | EC50 (HIV-1) [µM] | CC50 (in vitro [1]) [µM] | EC50 (Sb-1) [µM] | EC50 (VSV) [µM] | melting point [°C] | CC50 (in vitro [2]) [µM] | EC50 (CV-B5) [µM] | EC50 (VV) [µM] | CC50 (in vitro [3]) [µM] | EC50 (RSV) [µM] | CC50 (in vitro [4]) [µM] | activity against BVDV (in words) (BVDV) |
| --- | --- | --- | --- | --- | --- | --- | --- | --- | --- | --- | --- | --- | --- | --- | --- | --- |
| FC(F)(F)c1cccc(NC(=S)NCCc2c[nH]c3ccccc23)c1 [Compound 24, 1-(2-(1H-Indol-3-yl)ethyl)-3-(3-(trifluoromethyl)phenyl)thiourea] | > 23 | > 9 | > 9 | > 16 | > 44 | 23 | > 16 | > 16 | 169 to 171 | 9 | > 16 | > 16 | 16 | > 16 | 44 | – |
| S=C(NCCc1c[nH]c2ccccc12)Nc1ccccc1Cl [Compound 13, 1-(2-(1H-Indol-3-yl)ethyl)-3-(2-chlorophenyl)thiourea] | > 49 | > 11 | > 11 | > 53 | > 47 | 49 | > 53 | > 53 | 170 to 172 | 11 | 12 ± 0.9 | > 53 | 53 | > 53 | 47 | – |
| Fc1cccc(NC(=S)NCCc2c[nH]c3ccccc23)c1 [Compound 12, 1-(2-(1H-Indol-3-yl)ethyl)-3-(3-fluorophenyl)thiourea] | > 49 | > 16 | > 16 | > 60 | > 47 | 49 | > 60 | > 60 | 162 to 164 | 16 | > 60 | > 60 | 60 | > 60 | 47 | – |
| S=C(NCCc1c[nH]c2ccccc12)Nc1ccccc1 [Compound 1, 1-(2-(1H-Indol-3-yl)ethyl)-3-phenylthiourea] | > 100 | > 48 | > 48 | > 64 | > 31 | > 100 | > 64 | > 64 | – | 48 | > 64 | > 64 | 64 | > 64 | 31 | – |
| C[C@@]1(O)[C@H](O)[C@@H](CO)O[C@H]1n1ccc(N)nc1=O [2′-C-methyl-cytidine, 2′-C-methylcytidine, reference compound] | – | 10 ± 1.2 | – | – | – | – | 7.3 ± 0.4 | – | – | > 100 | 18 ± 0.9 | – | > 100 | – | – | – |
| O=C(NC(=S)NCCc1c[nH]c2ccccc12)c1ccccc1 [Compound 5, 1-(2-(1H-Indol-3-yl)ethyl)-3-benzoylthiourea] | 20 ± 1.5 | > 34 | > 34 | > 29 | > 38 | 67 | > 29 | > 29 | – | 34 | > 29 | > 29 | 29 | > 29 | 38 | showed activity |
| Fc1ccc(NC(=S)NCCc2c[nH]c3ccccc23)cc1Cl [Compound 28, 1-(2-(1H-Indol-3-yl)ethyl)-3-(3-chloro-4-fluorophenyl)thiourea] | 13 ± 1.2 | > 30 | > 30 | > 32 | > 45 | 37 | > 32 | > 32 | 162 to 164 | 30 | 20 ± 2.1 | > 32 | 32 | > 32 | 45 | showed activity |
| Nc1nc2c(ncn2COCCO)c(=O)[nH]1 [Acycloguanosine, acycloguanosine, reference compound] | – | – | – | 3 ± 0.2 | – | – | – | – | – | – | – | – | > 100 | – | – | – |
| S=C(NCCc1c[nH]c2ccccc12)NC1CCCCC1 [Compound 9, 1-(2-(1H-Indol-3-yl)ethyl)-3-cyclohexylthiourea] | > 55 | > 13 | > 13 | > 14 | > 49 | 55 | > 14 | > 14 | – | 13 | > 14 | > 14 | 14 | > 14 | 49 | – |
| S=C(NCCc1c[nH]c2ccccc12)NCc1ccccc1 [Compound 10, 1-(2-(1H-Indol-3-yl)ethyl)-3-benzylthiourea] | > 100 | > 52 | > 52 | > 100 | > 78 | > 100 | > 100 | > 100 | – | 52 | 30 ± 2.4 | > 100 | > 100 | > 100 | 78 | – |
| Fc1ccc(NC(=S)NCCc2c[nH]c3ccccc23)cc1 [Compound 17, 1-(2-(1H-Indol-3-yl)ethyl)-3-(4-fluorophenyl)thiourea] | > 53 | > 30 | > 30 | > 53 | > 44 | 53 | > 53 | > 53 | – | 30 | > 53 | > 53 | 53 | > 53 | 44 | – |
| Cc1ccc(NC(=S)NCCc2c[nH]c3ccccc23)cc1Cl [Compound 23, 1-(2-(1H-Indol-3-yl)ethyl)-3-(3-chloro-4-methylphenyl)thiourea] | > 25 | > 10 | > 10 | > 17 | > 44 | 25 | > 17 | > 17 | 161 to 163 | 10 | > 17 | > 17 | 17 | > 17 | 44 | – |
| Cc1ccc(Cl)cc1NC(=S)NCCc1c[nH]c2ccccc12 [Compound 26, 1-(2-(1H-Indol-3-yl)ethyl)-3-(3-chloro-6-methylphenyl)thiourea] | 15 ± 1.2 | > 12 | > 12 | > 17 | > 45 | 42 | > 17 | > 17 | 163 to 165 | 12 | > 17 | > 17 | 17 | > 17 | 45 | showed activity |
| Fc1ccccc1NC(=S)NCCc1c[nH]c2ccccc12 [Compound 11, 1-(2-(1H-Indol-3-yl)ethyl)-3-(2-fluorophenyl)thiourea] | > 69 | > 34 | > 34 | > 73 | > 48 | 69 | > 73 | > 73 | 167 to 168 | 34 | > 73 | > 73 | 73 | > 73 | 48 | – |
| COc1c(C)c2c(c(O)c1C/C=C(\C)CCC(=O)O)C(=O)OC2 [Mycophenolic acid, mycophenolic acid, reference compound] | – | – | – | – | – | – | – | – | – | – | – | 1.5 ± 0.2 | 13 | – | – | – |
| S=C(NCCc1c[nH]c2ccccc12)Nc1cccc(Br)c1 [Compound 7, 1-(2-(1H-Indol-3-yl)ethyl)-3-(3-bromophenyl)thiourea] | 20 ± 2 | > 10 | > 10 | > 12 | > 45 | 55 | > 12 | > 12 | 152 to 154 | 10 | > 12 | > 12 | 12 | > 12 | 45 | showed activity |
| S=C(NCCc1c[nH]c2ccccc12)Nc1ccc(Cl)cc1 [Compound 4, 1-(2-(1H-Indol-3-yl)ethyl)-3-(4-chlorophenyl)thiourea] | > 100 | > 47 | > 47 | > 55 | > 45 | > 100 | > 55 | > 55 | – | 47 | > 55 | > 55 | 55 | > 55 | 45 | – |
| CCCCc1ccc(NC(=S)NCCc2c[nH]c3ccccc23)c(C)c1 [Compound 27, 1-(2-(1H-Indol-3-yl)ethyl)-3-(4-butyl-2-methylphenyl)thiourea] | > 11 | > 9.5 | > 9.5 | > 12 | > 45 | 11 | > 12 | > 12 | 172 to 174 | 9.5 | > 12 | > 12 | 12 | > 12 | 45 | – |
